Measurements as given in US4822780A, “Carboxamide compounds” (Otsuka Pharmaceutical Factory, Inc., priority 1987, dated 1989).

system: vascular smooth muscles (thoracic aorta); experiment: Calcium antagonistic action in vascular smooth muscles (spiral piece of thoracic aorta, Ca2+ dose-reaction curve in presence of KCl); format: cell-based, Male Wistar rats; conditions: isolated rat aorta spiral piece, 37° C.; KCl 5×10^-2 M; CaCl2 10^-4 to 3×10^-2 M; test compound 3×10^-7 to 10^-5 M; Van Rossum method; 5 samples
Protocol: Male Wistar rats weighing about 250 g were anesthetized with ether, hit hard in the occipital region, and the both common carotid arteries were cut to let blood, and the thoracic aorta was removed. Fat tissues depositing on the extracted blood vessel were removed, and a spiral piece of 2 mm×50 mm was prepared.
This spiral piece of aort was kept at 37° C., and was suspended in an organ bath containing Ca^2+ --free Krebs--Henseleit solution ventilated with mixed gas of 95% O2 and 5% CO2 and its contraction reaction was measured in the following method by way of an isotonic transducer.
In the first place, to the spiral piece deprived of Ca^2+, CaCl2 solution of 10^-4 to 3×10^-2 M was comulatively added in the presence of KCl of 5×10^-2 M, and the dose-reaction curve by Ca^2+ was determined, and after removing Ca^2+ again, the dose-reaction curve by Ca^2+ was determined in the presence of the test compound, and from the difference of these reactions, the pA2 value of Ca^2+ antagonistic action of the test compound was calculated. The concentration of the test compound was 3×10^-7 to 10^-5 M. (The pA2 value was calculated according to the method proposed by Van Rossum, J. M., in Arch. Int. Pharmarcodyn., 143, 299-330, 1963).

SMILES	pA2 value of Ca^2+ antagonistic action
CCOP(=O)(Cc1ccc(C(=O)N(Cc2ccc([N+](=O)[O-])cc2)c2ccccc2)cc1)OCC [Example 46]	6.07 ± 0.12
CCOP(=O)(Cc1ccc(C(=O)N(Cc2ccccc2)c2ccccc2)cc1)OCC [Example 45, 4-diethoxyphosphinylmethyl-N-benzyl-N-phenylbenzamide]	6.75 ± 0.08
CCOP(=O)(Cc1ccc(C(=O)Nc2ccccc2O)cc1)OCC [Example 13]	6.52 ± 0.10
CCOP(=O)(Cc1ccc(C(=O)N(Cc2ccccc2)c2ccc(OC)cc2)cc1)OCC [Example 56, 4-diethoxyphosphinylmethyl-N-benzyl-N-(4-methoxyphenyl)benzamide]	6.99 ± 0.11
CCOP(=O)(Cc1cccc(C(=O)N(Cc2ccc(C(=O)OC)cc2)c2ccccc2)c1)OCC [Example 74]	6.50 ± 0.09
